Experimental data as given in patent US20240016894A1, “METHODS AND MATERIALS FOR AMELIORATING CREATINE DEFICIENCY DISORDERS” (The Regents of the University of California, priority 2022, published 2024).

Test system: Gamt−/− mice
Assay: (18F)-FDG PET brain glucose uptake
Type: in vivo, mouse
Details: Gamt-deficient mice; sequence regular chow (5.24±0.76), oral creatine supplementation, then AAV (regular chow only)
From the text: Considering the importance of the creatine/phosphocreatine shuttle to cells with high-energy expenditures, we examined the uptake of glucose to the brain in Gamt-deficient mice. Fluorodeoxyglucose (18(F)-FDG)-positron-emission tomography (PET) is a well-established non-invasive imaging tool for monitoring changes in cerebral brain glucose metabolism in vivo. To examine restoration of hepatic Gamt and its effect as a treatment strategy in GAMT deficiency, we sought to examine the brain of this preclinical model. By measuring cerebral glucose metabolism with (18F)-FDG-PET we can detect neuronal dysfunction in vivo as brain glucose metabolism is determined by synaptic activity mainly in order to restore membrane potentials (26). To semi-quantitate tissue activity, we determined the activity divided by the decay-corrected activity injected into the mouse; this ratio is defined as the percent-injected dose per cubic centimeter in tissue (% ID/cc). […]
We evaluated if there was a substantial improvement in brain metabolism with restoration of GAMT activity in hepatocytes with a gene therapy approach and compared this to present day therapy with oral creatine supplementation. […]
Animals were anesthetized with 1.5% vaporized isoflurane, and injected with (18F)-FDG via tail vein. […] Co-registered PET/CT data were analyzed and quantified using AMIDE software. […]

## CN(CC(=O)O)C(=N)N [creatine]
  Brain (18F)-FDG uptake, each mouse its own control: 5.26±1.10 % ID/cc
